Assay results as given in patent publication US20080275032A1, “Pyridazinone compounds” (priority 2006, published 2008).
pIC50: −log10 of the molar value.

Each molecule was assayed against HCV NS5B polymerase (Hepatitis C virus genotype 1b, UniProt P26663) (assay: biochemical). Details: HCV polymerase inhibition, 50 nM enzyme, 2 h at room temperature, FlashPlate [α-33P]GTP incorporation.
Method: NS5B Polymerase Inhibition Assay (IC50)
Compounds were tested for HCV polymerase inhibition. Assays were performed in a 96-well streptavidin-coated FlashPlate using 50 nM enzyme, 0.5 μCi of [α-^33P]GTP, 0.6 μM GTP, and 50 nM 5′biotinylated oligo (rG13)/poly rC in 20 mM Tris-HCl, pH 7.5, 5 mM MgCl2, 20 mM NaCl, 5 mM dithiothreitol, and 0.1 g/L BSA. The reaction was stopped by aspiration after 2 h at room temperature and the plate was washed several times. After washing, incorporated radioactivity was counted using a Microbeta scintillation counter.

HCV NS5B polymerase, sequence (P26663 2420-3010): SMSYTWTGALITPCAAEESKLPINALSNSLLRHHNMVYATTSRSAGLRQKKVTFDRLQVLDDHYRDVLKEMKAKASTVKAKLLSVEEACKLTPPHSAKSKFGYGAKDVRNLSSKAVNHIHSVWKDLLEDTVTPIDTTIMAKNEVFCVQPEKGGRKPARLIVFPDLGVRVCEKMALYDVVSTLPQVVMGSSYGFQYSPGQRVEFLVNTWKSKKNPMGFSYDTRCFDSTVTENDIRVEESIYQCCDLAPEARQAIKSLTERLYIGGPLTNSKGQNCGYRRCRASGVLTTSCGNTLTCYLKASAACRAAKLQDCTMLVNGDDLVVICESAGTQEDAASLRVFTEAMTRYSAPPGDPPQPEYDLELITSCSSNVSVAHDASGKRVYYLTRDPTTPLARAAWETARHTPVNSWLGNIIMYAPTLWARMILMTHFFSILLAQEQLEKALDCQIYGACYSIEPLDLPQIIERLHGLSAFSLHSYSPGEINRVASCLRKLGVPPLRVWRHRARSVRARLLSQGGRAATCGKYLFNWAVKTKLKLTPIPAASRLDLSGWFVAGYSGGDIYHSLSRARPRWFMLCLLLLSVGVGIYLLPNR

SMILES	pIC50
CC(C)CCn1nc(-c2cccs2)c(OCOC(=O)C(C)(C)C)c(C2=Nc3ccc(N(C)S(C)(=O)=O)cc3S(=O)(=O)N2)c1=O [2,2-Dimethyl-propionic acid 5-[7-(methanesulfonyl-methyl-amino)-1,1-dioxo-1,2-dihydro-1λ^6-benzo[1,2,4]thiadiazin-3-yl]-1-(3-methyl-butyl)-6-oxo-3-thiophen-2-yl-1,6-dihydro-pyridazin-4-yloxymethyl ester]	5.00 to 6.00
CC(C)(C)CCn1nc(-c2cccs2)c(O)c(C2=NS(=O)(=O)c3cc(N(COC(=O)C(C)(C)C)S(C)(=O)=O)ccc3N2)c1=O [2,2-Dimethyl-propionic acid ({3-[2-(3,3-dimethyl-butyl)-5-hydroxy-3-oxo-6-thiophen-2-yl-2,3-dihydro-pyridazin-4-yl]-1,1-dioxo-1,2-dihydro-1λ^6-benzo[1,2,4]thiadiazin-7-yl}-methanesulfonyl-amino)-methylester]	6.00 to 7.00
CC(C)CCn1nc(-c2cccs2)c(O)c(C2=Nc3ccc(N(COC(=O)C(C)(C)C)S(C)(=O)=O)cc3S(=O)(=O)N2)c1=O [2,2-Dimethyl-propionic acid ({3-[5-hydroxy-2-(3-methyl-butyl)-3-oxo-6-thiophen-2-yl-2,3-dihydro-pyridazin-4-yl]-1,1-dioxo-1,2-dihydro-1λ^6-benzo[1,2,4]thiadiazin-7-yl}-methanesulfonyl-amino)-methylester]	6.00 to 7.00
CCN(CC)CCS(=O)(=O)Nc1ccc2c(c1)S(=O)(=O)NC(c1c(O)c(-c3cccs3)nn(CCC(C)(C)C)c1=O)=N2 [2-Diethylamino-ethanesulfonicacid {3-[2-(3,3-dimethyl-butyl)-5-hydroxy-3-oxo-6-thiophen-2-yl-2,3-dihydro-pyridazin-4-yl]-1,1-dioxo-1,4-dihydro-1λ^6-benzo[1,2,4]thiadiazin-7-yl}-amide]	6.00 to 7.00
CC(C)CCn1nc(-c2cncs2)c(O)c(C2=Nc3ccc(NS(=O)(=O)C(C)(C)C)cc3S(=O)(=O)N2)c1=O [2-Methyl-propane-2-sulfonic acid{3-[5-hydroxy-2-(3-methyl-butyl)-3-oxo-6-thiazol-5-yl-2,3-dihydro-pyridazin-4-yl]-1,1-dioxo-1,2-dihydro-1λ^6-benzo[1,2,4]thiadiazin-7-yl}-amide]	> 7.00
CC(C)CCn1nc(-c2cccs2)c(O)c(C2=Nc3ccc(C4CCCS4(=O)=O)cc3S(=O)(=O)N2)c1=O (stereo not drawn) [4-[7-(1,1-Dioxo-tetrahydro-1l6-thiophen-2-yl)-1,1-dioxo-1,2-dihydro-1λ^6-benzo[1,2,4]thiadiazin-3-yl]-5-hydroxy-2-(3-methyl-butyl)-6-thiophen-2-yl-2H-pyridazin-3-one]	6.00 to 7.00
CC(C)CCn1nc(-c2cccs2)c(O)c(C2=Nc3ccc(/C=C/S(C)(=O)=O)cc3S(=O)(=O)N2)c1=O [5-Hydroxy-4-[7-(2-methanesulfonyl-vinyl)-1,1-dioxo-1,2-dihydro-1λ^6-benzo[1,2,4]thiadiazin-3-yl]-2-(3-methyl-butyl)-6-thiophen-2-yl-2H-pyridazin-3-one]	6.00 to 7.00
O=c1c(C2=Nc3ccc(NS(=O)(=O)C4CC4)cc3S(=O)(=O)N2)c(O)c(-c2cccs2)nn1Cc1ccc(F)c(Cl)c1 [Cyclopropanesulfonic acid {3-[2-(3-chloro-4-fluoro-benzyl)-5-hydroxy-3-oxo-6-thiophen-2-yl-2,3-dihydro-pyridazin-4-yl]-1,1-dioxo-1,2-dihydro-1λ^6-benzo[1,2,4]thiadiazin-7-yl}-amide]	6.00 to 7.00
CC(C)CCn1nc(-c2cncs2)c(O)c(C2=Nc3ccc(NS(=O)(=O)C4CC4)cc3S(=O)(=O)N2)c1=O [Cyclopropanesulfonic acid {3-[5-hydroxy-2-(3-methyl-butyl)-3-oxo-6-thiazol-5-yl-2,3-dihydro-pyridazin-4-yl]-1,1-dioxo-1,2-dihydro-1λ^6-benzo[1,2,4]thiadiazin-7-yl}-amide]	> 7.00
CCS(=O)(=O)Nc1ccc2c(c1)S(=O)(=O)NC(c1c(O)c(-c3cccs3)nn(CCC(C)C)c1=O)=N2 [Ethanesulfonic acid {3-[5-hydroxy-2-(3-methyl-butyl)-3-oxo-6-thiophen-2-yl-2,3-dihydro-pyridazin-4-yl]-1,1-dioxo-1,2-dihydro-1λ^6-benzo[1,2,4]thiadiazin-7-yl}-amide]	> 7.00

Now from value to molecule:

pIC50	SMILES
> 7.00	CC(C)(C)CCn1nc(-c2cccs2)c(O)c(C2=Nc3ccc(NS(=O)(=O)CCN)cc3S(=O)(=O)N2)c1=O [2-Amino-ethanesulfonic acid {3-[2-(3,3-dimethyl-butyl)-5-hydroxy-3-oxo-6-thiophen-2-yl-2,3-dihydro-pyridazin-4-yl]-1,1-dioxo-1,2-dihydro-1λ^6-benzo[1,2,4]thiadiazin-7-yl}-amide]
6.00 to 7.00	CC(C)CCn1nc(-c2cccs2)c(O)c(C2=Nc3ccc(NCCS(N)(=O)=O)cc3S(=O)(=O)N2)c1=O [2-{3-[5-Hydroxy-2-(3-methyl-butyl)-3-oxo-6-thiophen-2-yl-2,3-dihydro-pyridazin-4-yl]-1,1-dioxo-1,2-dihydro-1λ^6-benzo[1,2,4]thiadiazin-7-ylamino}-ethanesulfonic acid amide]
6.00 to 7.00	CC(C)CCn1nc(-c2cccs2)c(O)c(C2=NS(=O)(=O)c3cc(N4CCCS4(=O)=O)ccc3N2)c1=O [4-[7-(1,1-Dioxo-1l6-isothiazolidin-2-yl)-1,1-dioxo-1,2-dihydro-1λ^6-benzo[1,2,4]thiadiazin-3-yl]-5-hydroxy-2-(3-methyl-butyl)-6-thiophen-2-yl-2H-pyridazin-3-one]
6.00 to 7.00	CC(C)CCn1nc(-c2cccs2)c(O)c(C2=NS(=O)(=O)c3cc(CCS(C)(=O)=O)ccc3N2)c1=O [5-Hydroxy-4-[7-(2-methanesulfonyl-ethyl)-1,1-dioxo-1,2-dihydro-1λ^6-benzo[1,2,4]thiadiazin-3-yl]-2-(3-methyl-butyl)-6-thiophen-2-yl-2H-pyridazin-3-one]
> 7.00	O=c1c(C2=Nc3ccc(NS(=O)(=O)C4CC4)cc3S(=O)(=O)N2)c(O)c(-c2cccs2)nn1CCC1CC1 [Cyclopropanesulfonic acid {3-[2-(2-cyclopropyl-ethyl)-5-hydroxy-3-oxo-6-thiophen-2-yl-2,3-dihydro-pyridazin-4-yl]-1,1-dioxo-1,2-dihydro-1λ^6-benzo[1,2,4]thiadiazin-7-yl}-amide]
5.00 to 6.00	CC(C)CCn1nc(C(C)(C)C)c(O)c(C2=Nc3ccc(NS(=O)(=O)C4CC4)cc3S(=O)(=O)N2)c1=O [Cyclopropanesulfonic acid {3-[6-tert-butyl-5-hydroxy-2-(3-methyl-butyl)-3-oxo-2,3-dihydro-pyridazin-4-yl]-1,1-dioxo-1,2-dihydro-1λ^6-benzo[1,2,4]thiadiazin-7-yl}-amide]
> 7.00	CCS(=O)(=O)Nc1ccc2c(c1)S(=O)(=O)NC(c1c(O)c(-c3cncs3)nn(CCC(C)C)c1=O)=N2 [Ethanesulfonic acid {3-[5-hydroxy-2-(3-methyl-butyl)-3-oxo-6-thiazol-5-yl-2,3-dihydro-pyridazin-4-yl]-1,1-dioxo-1,2-dihydro-1λ^6-benzo[1,2,4]thiadiazin-7-yl}-amide]
5.00 to 6.00	C=CS(=O)(=O)N(C)c1ccc2c(c1)S(=O)(=O)NC(c1c(O)c(-c3cccs3)nn(CCC(C)(C)C)c1=O)=N2 [Ethenesulfonic acid {3-[2-(3,3-dimethyl-butyl)-5-hydroxy-3-oxo-6-thiophen-2-yl-2,3-dihydro-pyridazin-4-yl]-1,1-dioxo-1,2-dihydro-1λ^6-benzo[1,2,4]thiadiazin-7-yl}-methyl-amide]
